Measurements: patent publication US20060269924A1, “Modulation of telomere-initiated cell signaling” (TRUSTEES OF BOSTON UNIVERSITY, priority 2003, published 2006)
{P} = phosphate

What was measured:
[1] = tested on: T-oligo-induced total p53, p21, p53 serine 15 phosphorylation; experiment: PARP inhibitor pretreatment and T-oligo responses, western blot; format: cell-based; details: fibroblasts, 40 μM T-oligo, 48 hours; 3AB 2.5 mM or IQ 100 μM
Method: To investigate the role of PARPs in responses to T-oligo, fibroblasts were pretreated with one of two different PARP inhibitors, 3-aminobenzamide (3AB, 2.5 mM) or […] (IQ, 100 μM) for 2 hours before addition of 40 μM T-oligo or an equal amount of diluent as a control. An additional dose of each inhibitor was given to the cells 4 hours after addition of the T-oligo or diluent (D). Fibroblasts were treated with 3AB and T-oligo, then collected 48 hours later for western blot. T-oligo-induced upregulation of total p53, p21, phosphorylation of p53 serine 15 (indicating p53 activation) were all reduced in the presence of 3AB (FIG. 17A).

[2] = tested on: p53 serine 15 phosphorylation and p21 induction in response to TRF2^DN; experiment: PARP inhibitors and response to TRF2^DN, western analysis; format: cell-based; details: neonatal fibroblasts, AdTRF2DN, 3 days; 3AB 2.5 mM or IQ 100 μM
Method: The graphs show densitometric readings of the western blots, with diluent control set at 100%. FIG. 9f: Lane 1, diluent, GFP; lane 2, diluent TRF2DN; lane 3, 3AB, GFP; lane 4, 3AB, TRF2DN; lane 5, IQ, GFP; lane 6, IQ, TRF2DN.
Neonatal fibroblasts were treated with AdTRF2DN or AdGFP as a negative control. Two hours before infection, cells were treated with either diluent 3AB (2.5 mM) or IQ (100 μM). After 3 days cells were collected for western analysis for the c-myc-tagged TRF2DN (to confirm infection), p53 serine 15 phosphorylation and p21 induction.

[3] = tested on: human fibrosarcoma HT-1080 cells; experiment: SA-β-Gal staining, HT-1080 cells; format: cell-based; details: HT-1080 cells, 40 μM, 4 days
Method: (§1) FIG. 13a: Exposure to T-oligo increases SA-β-Gal activity. HT-1080 cells were treated for 4 days with diluent alone or 40 μM T-oligo or the complementary control oligo, then stained and assayed for SA-β-Gal activity. FIG. 13b: Quantitative analysis of SA-β-Gal positive cells. Cells expressing SA-β-Gal activity were counted and presented as percentage of total cells in the cultures. Averages and standard deviations were calculated from 3 representative fields from each of 3 independent experiments. FIG. 13c: Effect of T-oligo on cell proliferation. Cells were treated for 4 days as in FIG. 12 and assayed for DNA synthesis by BrdU incorporation. FIG. 13d: Quantitative analysis of BrdU incorporation. Dark black nuclei indicate BrdU incorporated into nuclear DNA. BrdU positive cells were calculated and presented as percentage of total cells in the cultures. Averages and standard deviations were calculated from 3 representative fields from each of 3 independent experiments. FIG. 13e: Effect of T-oligo on pRb phosphorylation. Cells were treated as in FIG. 13a and were then collected for protein analysis by western blot using 30 μg total protein and probed for pRb-ser780*, ser795* and ser807/811* (pRb phosphorylated at serine 780, serine 795 and serine 807/811 respectively). Lanes D, T and C contain protein samples from cells treated with diluent, T-oligo and complementary oligo respectively. β-actin was used as a loading control.
Parallel cultures were treated as described in FIG. 13a. Cells were then washed once with PBS and refed with complete medium without additional treatment for 24 hours or 48 hours. FIG. 14a: SA-β-Gal activity. Cells were stained for SA-β-Gal activity. […]
TRF2^DN has been reported to induce a senescent phenotype in human fibrosarcoma HT-1080 cells. To determine whether exposure to the telomere 3′ overhang DNA (T-oligo) also induces senescence in these cells, HT-1080 cells (American Type Culture Collection; Manassas, Va.) were treated with either diluent alone, T-oligo or the complementary oligo as a control, for 4 days and then assessed for SA-β-Gal activity. […]

[4] = tested on: HT-1080 fibrosarcoma cells; experiment: BrdU incorporation assay, HT-1080 cells; format: cell-based, human; details: HT-1080 cells, 40 μM, 4 days
Method: as §1
Parallel cultures were treated as described in FIG. 13a. Cells were then washed once with PBS and refed with complete medium without additional treatment for 24 hours or 48 hours. FIG. 14a: SA-β-Gal activity. […]
HT-1080 fibrosarcoma cells cultured on Permanox chamber slides were treated with diluent, 40 μM T-oligo or 40 μM complementary oligo for 4 days and DNA synthesis was assayed using 5-bromo-2′-deoxy-uridine (BrdU) Labeling and Detection Kit II (Roche Molecular Biochemicals, Indianapolis, Ind.) following the protocol supplied by the manufacturer. […] After incubation with anti-mouse-Ig-alkaline phosphatase, the color reaction was detected by light microscopy. […]

[5] = tested on: HT-1080 human fibrosarcoma cells; experiment: Clonogenic assay; format: cell-based; details: HT-1080, 40 μM for one week, then replated 2 weeks without treatment
Method: Cells were treated with diluent, 40 μM T-oligo or complementary oligo for one week, and then assayed. FIG. 15a: Appearance of stained dishes. FIG. 15b: Quantification of clonogenic capacity. Colonies of triplicate cultures were counted and plotted as percentage of diluent treated control.
Human fibrosarcoma cells were treated with diluent alone, 40 μM T-oligo or 40 μM complementary oligo for one week and were then trypsinized and counted. 300 cells were seeded into 60 mm culture dishes in triplicate and then incubated in complete medium for 2 weeks with medium changed twice per week. Subsequently, the cells were fixed for 5 min in 100% methanol. The methanol was then removed and the culture dishes were rinsed briefly with water. The colonies were stained for 10 min in 4% (w/v) methylene blue solution in PBS, washed once again with water, and then counted.
To determine the long-term effect of T-oligo treatment on cell growth, HT-1080 human fibrosarcoma cells were treated with either diluent alone, 40 μM T-oligo or 40 μM complementary control oligo for one week and then an equal number of cells were replated and medium was changed twice per week for 2 weeks with no further treatment, and then stained with methylene blue (FIG. 15a).

[6] = tested on: HT-1080 fibrosarcoma cells; experiment: Telomere length (mean TRF length) assay; format: cell-based, human; details: HT-1080 cells, 40 μM, 4 days
Method: Cells were treated as described in FIG. 13a. Lanes 1, 2, 3 contain genomic DNA from cells treated with diluent (D), T-oligo (T), or complementary oligo (C). Lanes 4 and 5 contain high (H) molecular and low (L) molecular weight standard telomeric DNA.
HT-1080 fibrosarcoma cells were treated with diluent, 40 μM T-oligo or 40 μM complementary oligo for 4 days and then the genomic DNA was isolated using the DNeasy Tissue Kit (Qiagen, Valencia, Calif.). Telomere length was determined using the Telo TTAGGG Telomere Length Assay (Roche Molecular Biochemicals, Indianapolis, Ind.) following the protocol supplied by the manufacturer. […] Terminal restriction fragments (TRF) were detected by chemiluminescence. The mean TRF length was calculated by scanning the exposed X-ray film with a densitometer and calculated as previously described (Harley et al. [1990] Telomeres shorten during ageing of human fibroblasts. Nature 345, 458-460).
To determine the affect of T-oligos on the mean telomere length (MTL) in HT-1080 cells, cells were analyzed after treatment with T-oligo for 4 days which corresponded to the time that the senescent phenotype was readily observed. […] The less than 100 bp difference in calculated MTL is within the range of experimental variation and is not significant.

[7] = tested on: p95 phosphorylated at serine 343; experiment: p95 serine 343 phosphorylation after tankyrase siRNA, western blotting and densitometry; format: cell-based, human; details: 24 hours
Method: Paired cultures of human fibroblasts were treated once with tankyrase siRNA, with a non-specific siRNA (control) or were mock transfected as a second control. […] After an additional 24 hours, cells were collected and processed for western blotting using an antibody specific for p95 phosphorylated at serine 343, indicating p95 modification by activated ATM kinase. The film was then subjected to densitometry and the diluent control for each group of cells was set at 1.0 in arbitrary units (FIG. 19). As expected, in cells with normal tankyrase levels the T-oligo treated cells had twice the amount of phosphorylated p95, while the control oligo-treated or diluent-treated cells had only a 30-40% increase.

S91 mouse melanoma cells = experiment: Melanin content of S91 melanoma cells; format: cell-based; details: 100 μM
Method: Cultures of S91 mouse melanoma cells (100,000 cells/38 cm^2) were treated with 100 μM pTpT or phosphorothioate pTpT (pTspT) (FIG. 4) or 40 μM 11mer-1 or the phosphorothioate 11mer-1 (11mer-1-S) (FIG. 5) for 6 days and were then collected, counted and assayed for melanin content.
(§2) Duplicate cultures of S91 cells (100,000 cells/39 cm^2) were either sham-irradiated or irradiated with 5 mJ/cm^2 solar-simulated light from a 1 kW xenon arc solar-simulator (XMN 1000-21, Optical Radiation, Azuza, Calif.) metered at 285±5 nm using a research radiometer (model IL1700A, International Light, Newburyport, Mass.). Two sham-irradiated plates were then supplemented with 100 μM pTspT and two irradiated cultures were similarly treated with pTspT. After one week, cells were collected, counted and analyzed for melanin content by dissolving the cell pellets in 1 N NaOH and measuring the optical density at 475 nm. […] However, this response was blocked by the addition of pTspT (FIG. 6). In addition, the constitutive pigmentation of these cells was reduced by the pTspT in the sham-irradiated cultures, similar to the data presented in FIGS. 4 and 5.

S91 cells = experiment: UV-induced melanogenesis in S91 cells; format: cell-based, mouse; details: 5 mJ/cm^2 solar-simulated light, 100 μM, one week
Method: as §2

NC(=O)c1cccc(N)c1 [Oligonucleotide 3AB, 3-aminobenzamide]
T-oligo-induced phosphorylation of p53 serine 15 [1]: reduced
T-oligo-induced upregulation of p21 [1]: reduced
T-oligo-induced upregulation of total p53 [1]: reduced
p21 induction in response to TRF2^DN [2]: reduced
p53 phosphorylation in response to TRF2^DN [2]: reduced

pCTAACCCTAAC (DNA, 5' {P}, backbone and methylation of C not given here; listed as Homo sapiens) [Oligonucleotide 11mer-2, reference compound]
SA-β-Gal positive cells [3]: 6±3%
BrdU incorporation (BrdU positive cells) [4]: 85±10%
clonogenic capacity [5]: 90.5±9.4 % of diluent treated control
mean telomere length (MTL) [6]: 5.51 kb
increase in phosphorylated p95 ([7]; human fibroblasts with normal tankyrase levels): 30-40%
level of p95 phosphorylation (densitometry, diluent control set at 1.0) ([7]; tankyrase knockdown group (tankyrase siRNA)): 1.3 arbitrary units

pTpT
melanogenesis (melanin content) (S91 mouse melanoma cells; 6 days): stimulated melanogenesis

pTspT
constitutive pigmentation (S91 mouse melanoma cells; 6 days): reduced the constitutive pigmentation
melanogenesis (melanin content) (S91 mouse melanoma cells; 6 days): did not
constitutive pigmentation (S91 mouse melanoma cells; sham-irradiated, one week): reduced
UV-induced doubling of melanin content (S91 cells): blocked
